Assay type in all cases: cell-based
Test [1] deals with SARS-CoV-2 Alpha strain (QK002).
Test [2] relates to SARS-CoV-2 Gamma strain (TY7-501).
The subject of test [3] is SARS-CoV-2 Beta strain (TY8-612).
[4] abbreviates: Alpha strain (QK002), CPE assay in Vero/TMPRSS2.
Where [5] appears, read: Gamma strain (TY7-501), CPE assay in Vero/TMPRSS2.
The mark [6] stands for this setting: Beta strain (TY8-612), CPE assay in Vero/TMPRSS2.

In patent US20250325547A1, “ANTI-SARS-COV-2 DRUG” (KAGOSHIMA UNIVERSITY, priority 2021, published 2025) one finds EC50 data, which are given here for three compounds.

One may read the EC50 as the concentration at which the effect is half-maximal.

Like-named read-outs stand apart in the source and are kept apart here.

For `CC(C)N(Cc1cc(Nc2ncnc3ccccc23)cc(Cl)c1O)C(C)C` [Compound 15], the EC50 was 2.7 µM in test [1] (setting [4]), 3.5 µM in test [2] (setting [5]) and 6.8 µM in test [3] (setting [6]).

For the compound `CCN(Cc1cc(Nc2ncnc3ccccc23)cc(Cl)c1O)C(C)C` [Compound 11], the EC50 in test [1] (setting [4]) came to 3.8 µM; in test [2] (setting [5]), 5.4 µM; in test [3] (setting [6]) it was 9.3 µM.

Turning to `CCN(Cc1cc(Nc2ncnc3ccccc23)cc(Cl)c1O)C1CCCCC1` [Compound 19], the 50% effective concentration (EC50) in test [1] was 5.8 µM; in test [2] it was 4.2 µM; in test [3] it was 8.6 µM.
